This passage reports IC50 results from ChEMBL document CHEMBL3301464, “MMV Malaria Box anti-babesial screening”.

The nature of assay [1]: (§1) MMV: Anti-babesial activity assay. Parasite pRBCs at 1% parasitemia were cultivated in 100 ul with 96-well plates at 2.5% and 5% hematocrits. The parasites were cultivated in triplicate for 4 days without replacement of the medium for each concentration of the compound. Format: functional, Babesia bigemina.
Assay [2] is described as follows: as §1. Format: functional, Babesia bovis.
Assay [3] is described as follows: as §1. Format: functional, Babesia equi.
A short description of assay [4]: as §1. Format: functional, Babesia caballi.

Broadly, the IC50 is the concentration that gives 50% inhibition. Take `N=c1c2ccccc2nnn1-c1cccc(C(F)(F)F)c1`: the 50% inhibitory concentration (IC50) in assay [1] was 19.1 µM; in assay [2], 15 µM; in assay [3] it was 9.18 µM; in assay [4], 18.1 µM.
Taken in the same sequence, the figures for `COCCNCC(O)Cn1c2ccc(Cl)cc2c2cc(Cl)ccc21` (stereo not drawn) were 1.87 µM, greater than 25 µM, 16.3 µM and 5.64 µM.
Taken in the same sequence, the figures for `Cc1ccc(Cl)cc1N1CCN(CCCNC(=O)C2CCN(c3nc4ccccc4[nH]3)CC2)CC1` were 2.4 µM, 3.03 µM, 4.77 µM and 1 µM.
For the compound `OC1=C2C(=Nc3ccccc3SC2c2ccccc2)c2ccccc21` (stereo not drawn), the IC50 in assay [1] worked out at 0.5 µM; in assay [2] it was 0.1 µM; in assay [3] it was 0.1 µM; in assay [4] it was 8.77 µM.
Turning to `CCOc1ccccc1NC(=O)CN1CCN(C(=O)c2ccco2)CC1`, the IC50 in assay [1] was 17.5 µM; in assay [2], 25 µM; in assay [3], 10.3 µM; in assay [4] it was 3.81 µM.
Taken in the same sequence, the figures for `Oc1ccc(Br)cc1CN1CCN(Cc2ccc(Cl)cc2)CC1` were 25 µM, 8.61 µM, 2.95 µM and 3.86 µM.
With `O=C(Nc1ccccc1O)c1ccc(Oc2cccc(C(=O)Nc3ccccc3O)c2)cc1`, the IC50 in assay [1] is 2.86 µM; in assay [2], 6.45 µM; in assay [3], 4.19 µM; in assay [4], 19.4 µM.
Turning to `CCN(CC)CCNc1ccnc2cc3ccccc3cc12`, the half-inhibitory concentration (IC50) in assay [1] came out at 3.25 µM; in assay [2], 7.72 µM; in assay [3], 5.69 µM; in assay [4], 5.09 µM.
The matching figures for `COc1ccc(C2c3ccc4ccccc4c3Oc3ncn(CCCN(C)C)c(=N)c32)cc1` (stereo not drawn): 0.033 µM, 0.052 µM, 0.49 µM and 7.26 µM.
On to `Nc1ccc(-c2nc3cc(Cc4ccc5[nH]c(-c6ccc(N)cc6)nc5c4)ccc3[nH]2)cc1`, for which the 50% inhibitory concentration (IC50) in assay [1] is 9.04 µM; in assay [2], 0.086 µM; in assay [3], 0.8 µM; in assay [4], 1 µM.
Regarding `FC(F)(F)c1cccc(Nc2nc3ccccc3nc2Nc2cccc(C(F)(F)F)c2)c1`, the IC50 in assay [1] stood at 3.45 µM; in assay [2], 0.14 µM; in assay [3], 4.13 µM; in assay [4] it was 4.27 µM.
As for `CCOc1cccc2sc(N(Cc3cccnc3)C(=O)C3CCCCC3)nc12`, the half-inhibitory concentration (IC50) in assay [1] was found to be 21.6 µM; in assay [2] it was 25 µM; in assay [3], 4.77 µM; in assay [4], 0.076 µM.
Take `O=C(NCc1ccco1)C1CCN(S(=O)(=O)c2ccc(Cl)cc2)CC1`: the IC50 was 13 µM in assay [1], greater than 25 µM in assay [2], 7.59 µM in assay [3] and 25 µM in assay [4].
In the case of `COc1cccc(NC(=O)Cn2c(C)c(C#N)c3ccccc32)c1`, the IC50 was 14.8 µM in assay [1], 9.04 µM in assay [2], 7.3 µM in assay [3] and 10.1 µM in assay [4].
The matching figures for `COc1ccc(Nc2nc(NCc3ccccc3)c3ccccc3n2)cc1`: 2.16 µM, 0.06 µM, 4.77 µM and 3.7 µM.
The matching figures for `CC1CCCCN1CCCNC(=O)c1ccc2c(c1)sc1nc(-c3ccc(F)cc3)cn12` (stereo not drawn): 3.9 µM, 0.19 µM, 0.1 µM and 8.54 µM.
For the compound `CCn1c2c(c(=N)c3c1CCC3)CCCC2`, the IC50 in assay [1] stood at 0.082 µM; in assay [2] it was 0.052 µM; in assay [3] it was 15 µM; in assay [4], 0.44 µM.
Taken in the same sequence, the figures for `COc1cccc(Cn2c(Oc3ccccc3)nc3c2c(=O)n(C)c(=O)n3C)c1` were 10 µM, 10.3 µM, greater than 25 µM and 5.7 µM.
As for `COc1ccc(N2CCN(C(CNC(=O)CC(C)(C)C)c3ccc4c(c3)OCO4)CC2)cc1` (stereo not drawn), the IC50 amounted to 0.1 µM in assay [1], 0.79 µM in assay [2], 0.51 µM in assay [3] and 16.1 µM in assay [4].
Take `Cc1cc(NC(=O)c2cccc(C(F)(F)F)c2)n(-c2nc(-c3ccc4c(c3)OCO4)cs2)n1`: the IC50 came to 8.83 µM in assay [1], 18 µM in assay [2], 12.3 µM in assay [3] and 0.08 µM in assay [4].
As to `CCCCC(O)(c1ccc(Cl)cc1)C(CN1CCOCC1)c1ccc(Cl)cc1` (stereo not drawn), the IC50 in assay [1] was 0.1 µM; in assay [2] it was 11.9 µM; in assay [3], 13.2 µM; in assay [4], 0.55 µM.
With `COc1ccc2nc(N)nc(C)c2c1`, the 50% inhibitory concentration (IC50) in assay [1] was 15.6 µM; in assay [2], 7.23 µM; in assay [3], 3.03 µM; in assay [4] it was 4.19 µM.
On to `COc1ccc(C2C(C(=O)Nc3cccc(OC)c3)c3ccccc3C(=O)N2C2CCCCC2)cc1` (stereo not drawn), for which the IC50 in assay [1] worked out at 0.22 µM; in assay [2], 10 µM; in assay [3] it was 12.5 µM; in assay [4], 1 µM.
For `CC(C)(C)C(=O)Nc1ccc(C(=O)Nc2cccc(-c3nc4ccccc4[nH]3)c2)cc1`, the half-maximal inhibitory concentration (IC50) in assay [1] stood at 0.08 µM; in assay [2], 0.32 µM; in assay [3], 5.19 µM; in assay [4], 2.19 µM.
`CCCCc1c(C)nc2c(OC)cccc2c1O`: the IC50 stood at 15.3 µM in assay [1], 10 µM in assay [2], 14 µM in assay [3] and 5.64 µM in assay [4].
Taken in the same sequence, the figures for `COc1ccc(CN2CCCC(C(=O)c3ccc(C(F)(F)F)cc3)C2)c(O)c1` (stereo not drawn) were 19.8 µM, 0.21 µM, 3.86 µM and 16.5 µM.
Taken in the same sequence, the figures for `CCC(C)NCC(O)(c1ccc(Cl)cc1)c1ccc(Cl)cc1` (stereo not drawn) were 1.9 µM, 25 µM, 7.67 µM and 2.96 µM.
For the compound `OC(CNCc1ccccc1)Cn1c2ccccc2c2ccccc21` (stereo not drawn), the IC50 in assay [1] came out at 18 µM; in assay [2] it was 3.25 µM; in assay [3] it was 4.19 µM; in assay [4], 3.9 µM.
The matching figures for `Cc1cc(=O)oc2c1ccc1oc(C(=O)c3ccccc3)c(C)c12`: 11.9 µM, 10.1 µM, 12.1 µM and 5.69 µM.
Consider `O=C(NC(c1ccccc1)c1ccc2cccnc2c1O)c1ccccc1` (stereo not drawn), for which the IC50 in assay [1] stood at 0.93 µM; in assay [2], 1 µM; in assay [3], 0.47 µM; in assay [4] it was 0.55 µM.
Taken in the same sequence, the figures for `CCOC(=O)c1cnc2ccc(OC)cc2c1NCc1ccccc1` were 1 µM, 0.72 µM, 14.1 µM and 5.9 µM.
For the compound `Cc1ccc(C)c(-c2csc(Nc3ccc(C)c(C)c3)n2)c1`, the IC50 amounted to 8.05 µM in assay [1], 0.06 µM in assay [2], 0.14 µM in assay [3] and 0.71 µM in assay [4].
Turning to `Cc1nc2ccccc2c(O)c1CC=C(Cl)Cl`, the IC50 in assay [1] worked out at 10.7 µM; in assay [2], 4.27 µM; in assay [3] it was 15.2 µM; in assay [4], 3.02 µM.
Taken in the same sequence, the figures for `CCCn1c(=N)c(C(=O)NC2CCCCC2)cc2c(=O)n3cccc(C)c3nc21` were 13.3 µM, 5.7 µM, 2.95 µM and 6.08 µM.
The matching figures for `CCOc1c(Br)cc(C2C(C(=O)OC)=CN(C)C=C2C(=O)OC)cc1OC`: 0.25 µM, 0.072 µM, 9.18 µM and 11.9 µM.
Taken in the same sequence, the figures for `Cc1ccc(Cn2c(N3CCC(C(=O)NCc4cccs4)CC3)nc3ccccc32)cc1` were 10 µM, 17.7 µM, 12.9 µM and greater than 25 µM.
For the compound `CCN(CC)CCNc1ncnc2c1[nH]c1ccc(Cl)cc12`, the IC50 in assay [1] turned out to be 16.2 µM; in assay [2], 17.6 µM; in assay [3], 3.42 µM; in assay [4], 2.64 µM.
As for `CCN(CC)CCCNc1ccnc2cc3ccccc3cc12`, the IC50 worked out at 1.3 µM in assay [1], 2.7 µM in assay [2], 15.9 µM in assay [3] and 25 µM in assay [4].
Taken in the same sequence, the figures for `COc1ccc(C2N(C)c3ccccc3N2C)cc1` were 2.16 µM, 4.77 µM, 7.89 µM and 4.6 µM.
As for `CCOc1ccc(-n2cc(-c3ccccc3)c3c(SCc4cc(C)ccc4C)ncnc32)cc1`, the IC50 was found to be 10.7 µM in assay [1], 14.6 µM in assay [2], 13.9 µM in assay [3] and 16.5 µM in assay [4].
The matching figures for `CC(NCc1ccccc1)c1cc(Cl)ccc1O` (stereo not drawn): 12 µM, 3.81 µM, 8.25 µM and 16.6 µM.
The matching figures for `COc1cccc(C(=O)NC(c2ccc(C)cc2)c2cc(Cl)c3cccnc3c2O)c1` (stereo not drawn): 1.4 µM, 4.68 µM, 3.73 µM and 16.1 µM.
The matching figures for `COc1ccc(C(=O)Nc2nonc2-c2ccc(OC)c(OC)c2)cc1Cl`: 19.3 µM, greater than 25 µM, 20.4 µM and 15.9 µM.
On to `CC1CC2=C(CC1CNCCCN(C)C)C(C)(C)CCC2` (stereo not drawn), for which the concentration for half-maximal inhibition (IC50) came to 2.12 µM in assay [1], 0.58 µM in assay [2], 0.13 µM in assay [3] and 5.9 µM in assay [4].
The matching figures for `c1ccc(CNc2nc(Nc3ccccc3)nc3ccccc23)cc1`: 10 µM, 4.06 µM, 2.12 µM and 3.73 µM.
Turning to `CC(C)(C)CC(C)(C)NCC(O)COc1ccc(Cl)cc1Cl` (stereo not drawn), the IC50 came out at 0.32 µM in assay [1], 0.083 µM in assay [2], 0.53 µM in assay [3] and 0.071 µM in assay [4].
For the compound `CCN1CCN(c2cc(C)c3cc(NC(=O)c4ccc(OC)c(OC)c4)ccc3n2)CC1`, the IC50 in assay [1] was determined as 7.92 µM; in assay [2] it was 6.69 µM; in assay [3], 0.33 µM; in assay [4] it was 5.93 µM.
